Measurements as given in the NIST ThermoML archive (doi:10.1021/je049776w).

Experiment: xn = mol fraction of the nth substance listed
Conditions: 101.3 kPa, Liquid

Cc1ccc(C)cc1 [1,4-dimethylbenzene] + CCCCCCCC
Conditions | mass density [kg/m3] | viscosity [mPa·s]
298.15 K, x1 = 0.1068 | 712.9 | 0.5185
298.15 K, x1 = 0.2121 | 726.39 | 0.5172
298.15 K, x1 = 0.3156 | 740.39 | 0.5216
298.15 K, x1 = 0.4178 | 755.01 | 0.5273
298.15 K, x1 = 0.5184 | 770.21 | 0.5297
298.15 K, x1 = 0.6174 | 786.05 | 0.5393
298.15 K, x1 = 0.7152 | 802.61 | 0.5515
298.15 K, x1 = 0.8113 | 819.83 | 0.5678
298.15 K, x1 = 0.9065 | 837.91 | 0.5905
298.15 K, x1 = 1 | 856.7 | 0.6162
303.15 K, x1 = 0.1068 | 708.71 | 0.4829
303.15 K, x1 = 0.2121 | 722.17 | 0.4825
303.15 K, x1 = 0.3156 | 736.15 | 0.4833
303.15 K, x1 = 0.4178 | 750.77 | 0.4919
303.15 K, x1 = 0.5184 | 765.93 | 0.493
303.15 K, x1 = 0.6174 | 781.76 | 0.502
303.15 K, x1 = 0.7152 | 798.3 | 0.5139
303.15 K, x1 = 0.8113 | 815.51 | 0.5299
303.15 K, x1 = 0.9065 | 833.52 | 0.5489
303.15 K, x1 = 1 | 852.35 | 0.5715
313.15 K, x1 = 0.1068 | 700.44 | 0.4298
313.15 K, x1 = 0.2121 | 713.85 | 0.4298
313.15 K, x1 = 0.3156 | 727.78 | 0.4331
313.15 K, x1 = 0.4178 | 742.31 | 0.4373
313.15 K, x1 = 0.5184 | 757.45 | 0.4418
313.15 K, x1 = 0.6174 | 773.23 | 0.4483
313.15 K, x1 = 0.7152 | 789.72 | 0.4586
313.15 K, x1 = 0.8113 | 806.89 | 0.4722
313.15 K, x1 = 0.9065 | 824.89 | 0.4895
313.15 K, x1 = 1 | 843.64 | 0.508
323.15 K, x1 = 0.1068 | 692.26 | 0.3877
323.15 K, x1 = 0.2121 | 705.6 | 0.3903
323.15 K, x1 = 0.3156 | 719.47 | 0.3901
323.15 K, x1 = 0.4178 | 733.93 | 0.3952
323.15 K, x1 = 0.5184 | 749.01 | 0.3997
323.15 K, x1 = 0.6174 | 764.73 | 0.4057
323.15 K, x1 = 0.7152 | 781.17 | 0.4143
323.15 K, x1 = 0.8113 | 798.31 | 0.4269
323.15 K, x1 = 0.9065 | 816.2 | 0.4409
323.15 K, x1 = 1 | 834.9 | 0.4599
333.15 K, x1 = 0.1068 | 683.83 | 0.3528
333.15 K, x1 = 0.2121 | 697.15 | 0.3552
333.15 K, x1 = 0.3156 | 710.96 | 0.3571
333.15 K, x1 = 0.4178 | 725.38 | 0.3617
333.15 K, x1 = 0.5184 | 740.41 | 0.3671
333.15 K, x1 = 0.6174 | 756.08 | 0.3753
333.15 K, x1 = 0.7152 | 772.47 | 0.3858
333.15 K, x1 = 0.8113 | 789.52 | 0.3961
333.15 K, x1 = 0.9065 | 807.43 | 0.4138
333.15 K, x1 = 1 | 826.09 | 0.4298
343.15 K, x1 = 0.1068 | 675.29 | 0.3167
343.15 K, x1 = 0.2121 | 688.57 | 0.3164
343.15 K, x1 = 0.3156 | 702.32 | 0.3185
343.15 K, x1 = 0.4178 | 716.69 | 0.3223
343.15 K, x1 = 0.5184 | 731.68 | 0.3271
343.15 K, x1 = 0.6174 | 747.3 | 0.3329
343.15 K, x1 = 0.7152 | 763.64 | 0.341
343.15 K, x1 = 0.8113 | 780.65 | 0.3481
343.15 K, x1 = 0.9065 | 798.53 | 0.3588
343.15 K, x1 = 1 | 817.17 | 0.3783
353.15 K, x1 = 0.1068 | 666.51 | 0.2856
353.15 K, x1 = 0.2121 | 679.75 | 0.2877
353.15 K, x1 = 0.3156 | 693.48 | 0.2897
353.15 K, x1 = 0.4178 | 707.82 | 0.2939
353.15 K, x1 = 0.5184 | 722.78 | 0.2984
353.15 K, x1 = 0.6174 | 738.37 | 0.3016
353.15 K, x1 = 0.7152 | 754.7 | 0.3113
353.15 K, x1 = 0.8113 | 771.7 | 0.3174
353.15 K, x1 = 0.9065 | 789.57 | 0.3264
353.15 K, x1 = 1 | 808.22 | 0.3382
